This is an account of results in patent US4826975A, “Fused cycloaliphatic aminoalcohols” (Maggioni-Winthrop S.P.A., priority 1986, dated 1989).

Molecules are shown by their SMILES. Bounds are passed on as bounds.

One series concerns Normolipemic rats. The series can be described thus: hypolipemic activity in normolipemic rats (serum lipids, liver weight). It counts as in vivo, rat. As for the experimental part:
Total cholesterol (CHOL), triglycerides (TG), HDL cholesterol CHOL-HDL) were assayed in serum and the liver was weighed.

A short description of series [1]: oral acute toxicity in male mice. As to conditions: mouse, in vivo. The procedure:
The oral acute toxicity in male mice of the invention compound is very low. […]; and higher than 2,000 mg/kg for MG 38005, MG 28401, MG 28414 and MG 28427.

The test system of a further series is toxic adrenaline doses. The series can be described thus: animal or person. As to conditions: Mus musculus, po; 2 hrs before 14.5 mg/kg 1-adrenaline i.p., mortality after 24 hrs; read-out: DP50 (50% protective dose). It is filed as in vivo, mice.
For a further series, the system named is DOCA rats. It is filed as in vivo, rat. The note with it: 15 mg/kg po. The procedure:
Changes in blood pressure (mm Hg) before (T=O) and after treatment (2, 4 and 6 hrs) were measured according to the method of tail artery plethysmography reported in "Spontaneously hypertensive rats (SHR), guidelines for breeding, care and use", SHR Conference, 1976, page 11.
The heart rate was also […] (BP Recorder No. 8006 supplied by Basile, Comerio, Italy). The arterial pressure before the treatment was 210±10 mmHg in SHR and 200±10 in DOCA rats.

Another series relates to SHR. Description: anti-hypertensive activity in spontaneously hypertensive (SH) rats, tail artery plethysmography. The note with it: 15 mg/kg po.
A further series concerns gasping time in mice. The series can be described thus: anti-hypoxic activity, gasping time after decapitation. It is filed as in vivo. As for the experimental part: The anti-hypoxic activity was determined according to Yasuda et al., Arch. Int. Pharmacodyn. 233, 136, 1978.
Groups of 10 male mice (21-23 g) were treated orally with vehicle (controls) and the invention compounds. After 45 or 90 minutes the animals were decapitated and the gasping time was determined. Table 6 gives the results obtained after administration of some of the invention compounds which display an activity higher than Suloctidil.

The next series concerns platelet aggregation. The series can be described thus: effect on collagen-stimulated platelet aggregation, ex vivo. It is filed as in vivo. As to conditions: Rattus norvegicus, 0.15 mM/kg oral, 1 hr, collagen 2-4 mcg/ml, read-out: % inhibition, Aggregation rate. The procedure:
The effect on platelet aggregation was tested ex vivo according to the method of Minsker, (J. Pharmacol. Exp. Ther. 210, 37, 1979) slightly modified. Groups of 3 rats (280-350 g) were treated orally with vehicle (controls) and compounds (0.15 mM/kg). Blood was collected and pooled from rats of each group 1 hr after treatment and the platelet rich plasma (PRP) was separated by centrifugation.
Platelet aggregation was stimulated with collagen (2-4-mcg/ml) added simultaneously to PRP of control and treated rats. The results were assessed photometrically. Each test was replicated 4 times in groups of 3 animals. Aggregation curves were evaluated in terms of two parameters namely maximum optical density variation (maximum aggregation) and aggregation rate.

Setting [2] is: 100 mg/kg p.o., pretreatment 45 min.
Setting [3] is: 100 mg/kg p.o., pretreatment 90 min.

`COc1cc2c(cc1OC)[C@@H](O)[C@@H](N1CCC(NC(=O)c3ccccc3)CC1)C2` (relative stereo) [MG 38112, cis 2-(4-Benzamido-1-piperidinyl)-5,6-dimethoxy-1-indanol]: in the series with Normolipemic rats (0.185 mM/kg po × 4 days), the “CHOL, % difference from control” value was -45.2%; the “CHOL-HDL, % difference from control” value is -18.6%; the “Liver weight, % difference from control” value worked out at 0%; the “TG, % difference from control” value is on record as -41.8%. Moreover, in the series with Normolipemic rats (0.370 mM/kg po × 4 days), the “CHOL, % difference from control” value was -52.7%; the “CHOL-HDL, % difference from control” value is -21.4%; the “Liver weight, % difference from control” value was “+3.9%”; the “TG, % difference from control” value was -58.9%. For the same molecule, the “hypolipemic effect / activity (in words)” value with Normolipemic rats (oral) is “higher than with Clofibrate”. In addition, in the series with Normolipemic rats (oral, 4 days), the “effect on CHOL and TG (in words)” value is “marked decrease both of CHOL and TG”. Besides, in series [1], the 50% lethal dose (LD50) (commonly the dose expected to kill half of the subjects tested) was over 1000 mg/kg. Moreover, the ED50 in the series with toxic adrenaline doses was 4.4 mg/kg. Besides, the “Max. changes in systolic pressure” value in the series with DOCA rats is given as -19 mmHg. The “Max. changes in systolic pressure” value in the series with SHR is recorded as -35 mmHg.
As for `CCCCCCCCN[C@@H]1Cc2c(cc(OC)c(OC)c2OC)[C@H]1O` (relative stereo) [MG 38006, trans 2-(n-Octylamino)-4,5,6-trimethoxy-1-indanol], in the series on gasping time in mice (setting [2]), the “Gasping time, % diff. from control” value is “+33.2%”. In addition, the LD50 in series [1] was over 1000 mg/kg.
With `CCCCCCCCNC(C)C(O)c1ccc(SC(C)C)cc1` (stereo not drawn) [Suloctidil, reference compound], the “Gasping time, % diff. from control” value in the series with gasping time in mice (setting [2]) is given as “+27.5%”; with gasping time in mice (setting [3]), “+11.7%”. Moreover, in the series with platelet aggregation, the inhibition (as a rule, how much of the control response was suppressed) at 0.15 mmol/kg was 57.5%.
On to `Fc1ccc(C(c2ccc(F)cc2)N2CCN(C/C=C/c3ccccc3)CC2)cc1` [Flunarizine, reference compound], for which the “Gasping time, % diff. from control” value with gasping time in mice (50 mg/kg p.o., pretreatment 90 min.) is recorded as “+68.7%”.
As to `COc1cc2c(cc1OC)[C@@H](O)[C@@H](N1CCN(c3ccccc3OC)CC1)C2` (relative stereo) [MG 38100, cis-2-[4-(2-Methoxyphenyl)-1-piperazinyl]-5,6-dimethoxy-1-indanol], the “Gasping time, % diff. from control” value in the series on gasping time in mice (setting [2]) is on record as “+95.7%”. In series [1], this molecule showed an LD50 of over 500 mg/kg. Also, in the series with toxic adrenaline doses, the ED50 turned out to be 8.5 mg/kg.
Consider `COc1cc2c(cc1OC)C(=O)C(N1CCC(NC(=O)c3ccccc3)CC1)C2` (stereo not drawn) [MG 38128], for which, in the series on Normolipemic rats (0.370 mM/kg po × 4 days), the “CHOL, % difference from control” value is ~ 0%; the “CHOL-HDL, % difference from control” value is “+46.8%”; the “Liver weight, % difference from control” value is on record as “+8.6%”; the “TG, % difference from control” value is -38.8%. Also, the “effect on TG and CHOL-HDL (in words)” value in the series with Normolipemic rats (oral, 4 days) is “decrease TG and increase CHOL-HDL”.
With `COc1cc2c(c(OC)c1OC)CC(N1CCC(n3c(=O)[nH]c4ccccc43)CC1)C2=O` (stereo not drawn) [MG 38005, 2-[4-(2-oxo-1-benzimidazolinyl)-1-piperidinyl]-4,5,6-trimethoxy-1-indanone], the LD50 in series [1] was over 2000 mg/kg. Further, the figures for the “Max. changes in systolic pressure” value in the series on DOCA rats and in the series on SHR were -27 mmHg and -42 mmHg, respectively.
For the molecule `Cc1ccc(N(CC2=NCCN2)c2cccc(O)c2)cc1` [Phentolamine, reference compound], the ED50 in the series on toxic adrenaline doses was found to be 8 mg/kg.
On the same count and under the same terms, as for `COc1cc2c(cc1OC)[C@H](O)[C@H](N1CCC(n3c(=O)[nH]c4cc(Cl)ccc43)CC1)C2` (relative stereo) [MG 38121, cis 2-[4-(2-Oxo-5-chloro-1-benzimidazolinyl)-1-piperidinyl]-5,6-dimethoxy-1-indanol], the figure is 2.75 mg/kg.
Consider `COc1cc2c(cc1OC)[C@H](O)[C@@H](N1CCC(n3c(=O)[nH]c4cc(Cl)ccc43)CC1)C2` (relative stereo) [MG 38131, trans-2-[4-(2-Oxo-5-chloro-1-benzimidazolinyl)-1-piperidinyl]-5,6-dimethoxy-1-indanol], for which, in the series on Normolipemic rats (0.370 mM/kg po × 4 days), the “CHOL, % difference from control” value was ~ 0%; the “CHOL-HDL, % difference from control” value is listed as “+57.2%”; the “Liver weight, % difference from control” value is on record as “+6.9%”; the “TG, % difference from control” value is on record as -41.4%.
With `COc1cc2c(c(OC)c1OC)C[C@H](N1CCC(n3c(=O)[nH]c4cc(Cl)ccc43)CC1)[C@H]2O` (relative stereo) [MG 38122, trans-2-[4-(2-Oxo-5-chloro-1-benzimidazolinyl)-1-piperidinyl]-4,5,6-trimethoxy-1-indanol], the “Max. changes in systolic pressure” value in the series with DOCA rats is on record as -28 mmHg; in the series with SHR, -41.9 mmHg.
As for `CC(C)(Sc1cc(C(C)(C)C)c(O)c(C(C)(C)C)c1)Sc1cc(C(C)(C)C)c(O)c(C(C)(C)C)c1` [Probucol, reference compound], in the series with Normolipemic rats (0.205 mM/kg po × 8 days), the “CHOL, % difference from control” value is reported as -25.0%; the “CHOL-HDL, % difference from control” value is given as -26%; the “Liver weight, % difference from control” value is listed as “+4%”; the “TG, % difference from control” value was -28.0%. Also, in the series with Normolipemic rats (0.820 mM/kg po × 4 days), the “CHOL, % difference from control” value is ~ 0%; the “CHOL-HDL, % difference from control” value was “+18.5%”; the “Liver weight, % difference from control” value is ~ 0%; the “TG, % difference from control” value is ~ 0%. Also, the “hypolipemic effect / activity (in words)” value in the series on Normolipemic rats (oral) was “moderate and is noted only after prolonged treatment (8 days)”.
With `COc1cc2c(c(OC)c1OC)CC[C@H](N1CCC(n3c(=O)[nH]c4ccccc43)CC1)[C@H]2O` (relative stereo) [MG 38028, trans 2-[4-(2-Oxo-1-benzimidazolidinilyl)-1-piperidinyl]-5,6,7-trimethoxy-1-tetralol], the ED50 with toxic adrenaline doses came out at 0.73 mg/kg.
For `COc1cc2c(c(OC)c1OC)CC[C@H](N1CCC(n3c(=O)[nH]c4cc(Cl)ccc43)CC1)[C@H]2O` (relative stereo) [MG 16456, trans-2-[4(2-Oxo-5-chloro-1-benzimidazolinyl)-1-piperidinyl]-5,6,7-trimethoxy-1-tetralol], the “Gasping time, % diff. from control” value in the series on gasping time in mice (setting [3]) is “+36.3%”. For the same molecule, in the series on toxic adrenaline doses, the ED50 was determined as 1.85 mg/kg.
With `CCCCCCCCN[C@H]1Cc2cc(OC)c(OC)cc2[C@@H]1O` (relative stereo) [MG 28400, trans 5,6-Dimethoxy-2-(n-octylamino)-1-indanol], in the series with gasping time in mice (setting [2]), the “Gasping time, % diff. from control” value is “+53.8%”. Besides, in series [1], the 50% lethal dose (LD50) is over 500 mg/kg.
As to `COc1cc2c(c(OC)c1OC)C[C@H](N1CCC(NC(=O)c3ccccc3)CC1)[C@@H]2O` (relative stereo) [MG 38107, cis-2-(4-Benzamido-1-piperidinyl)-4,5,6-trimethoxy-1-indanol], in the series on Normolipemic rats (0.185 mM/kg po × 4 days), the “CHOL, % difference from control” value was -35.7%; the “CHOL-HDL, % difference from control” value is listed as -8.5%; the “Liver weight, % difference from control” value is given as “+5.6%”; the “TG, % difference from control” value was -50.9%. In addition, in the series with Normolipemic rats (0.370 mM/kg po × 4 days), the “CHOL, % difference from control” value was -30.7%; the “CHOL-HDL, % difference from control” value is on record as -26.3%; the “Liver weight, % difference from control” value is given as 0%; the “TG, % difference from control” value was -58.5%. The “hypolipemic effect / activity (in words)” value in the series with Normolipemic rats (oral) is recorded as “higher than with Clofibrate”. The “effect on CHOL and TG (in words)” value in the series with Normolipemic rats (oral, 4 days) was “marked decrease both of CHOL and TG”. The LD50 in series [1] was over 1000 mg/kg. For the same molecule, the ED50 in the series with toxic adrenaline doses is 2.45 mg/kg.
Consider `COc1cc2nc(N3CCN(C(=O)c4ccco4)CC3)nc(N)c2cc1OC` [Prazosin, reference compound], for which the ED50 with toxic adrenaline doses worked out at 0.7 mg/kg.
Take `COc1cc2c(cc1OC)[C@@H](O)[C@H](N1CCN(C(=O)C=Cc3ccccc3)CC1)C2` (relative stereo) [MG 28414, trans 2-[4-(1-Oxo-3-phenyl-2-propenyl)-1-piperazinyl]-5,6-dimethoxy-1-indanol]: the LD50 in series [1] was over 2000 mg/kg. For the same molecule, in the series on platelet aggregation, the inhibition at 0.15 mmol/kg is 58%.
Regarding `COc1cc2c(c(OC)c1OC)C[C@@H](N1CCC(n3c(=O)[nH]c4cc(Cl)ccc43)CC1)[C@H]2O` (relative stereo) [MG 38119, cis-2-[4-(2-Oxo-5-chloro-1-benzimidazolinyl)-1-piperidinyl]-4,5,6-trimethoxy-1-indanol], in the series on toxic adrenaline doses, the ED50 came out at 4.4 mg/kg.
